Data reported in patent publication US10087187B2, “Imidazopyridazine derivatives as PI3KB inhibitors” (Janssen Pharmaceutica NV, priority 2014, dated 2018).
pIC50, pKd: −log10 of the molar value. Read-outs that look alike come from different tables or passages of the source.

What was measured:
[1] = molecular target: PIK3Cα_h (Homo sapiens (Human), UniProt P42336); assay: KINOMEscan enzyme binding assay, PIK3Cα; settings: DiscoveRx
Description: (§1) Enzyme Binding Assays (KINOMEscan®) Kinase enzyme binding affinities of compounds disclosed herein were determined using the KINOMEscan technology performed by DiscoveRx Corporation, San Diego, Calif., USA (www.kinomescan.com).

[2] = molecular target: PIK3Cβ_h (Homo sapiens (Human), UniProt P42338); assay: KINOMEscan enzyme binding assay, PIK3Cβ; settings: DiscoveRx
Description: as §1, with “(www.kinomescan.com). Table A reports the obtained Kd values (nM), with the Kd being the inhibitor binding constant: […]” for “(www.kinomescan.com).”

[3] = molecular target: PIK3Cδ_h (Homo sapiens (Human), UniProt O00329); assay: KINOMEscan enzyme binding assay, PIK3Cδ; settings: DiscoveRx
Description: as §1, with “(www.kinomescan.com). Table A reports the obtained Kd values (nM), with the Kd being the inhibitor binding constant: […]” for “(www.kinomescan.com).”

[4] = molecular target: PIK3Cγ_h (Homo sapiens (Human), UniProt P48736); assay: KINOMEscan enzyme binding assay, PIK3Cγ; settings: DiscoveRx
Description: as §1

[5] = molecular target: MTOR_h (Homo sapiens (Human), UniProt P42345); assay: KINOMEscan enzyme binding assay, MTOR; settings: DiscoveRx
Description: as §1

[6] = test system: Akt phosphorylated at Ser473 in PC-3 cells; assay: Cellular assay: phosphorylation of Akt (Ser473) in PC-3 cells, MSD ELISA; assay type: cell-based; settings: 60 min incubation with compound, read-out: IC50 pAkt_S473
Description: (§2) Cellular activity of PI3Kβ inhibitors was determined by quantifying the phosphorylation of Akt in PC-3 cells. Akt phosphorylated at Ser473 and Thr308 were measured using an enzyme-linked immunosorbent assay (ELISA; Meso Scale Discovery (MSD), Gaithersburg, Md.) and specific primary antibodies from MSD.
(§3) On day 1, PC3 cells (ATCC # […]) were seeded into PerkinElmer MW96 plates at 25.000 cells per well, in 75 μl complete culture medium (DMEM (Dulbecco's Modified Eagle's Medium) high glucose, AQmedia™, D0819, Sigma-Aldrich) containing 10% heat inactivated FCS (Fetal Bovine Serum) and incubated at 37° C., 5% CO2 during 24 hours. On day 2, compound or DMSO (dimethyl sulfoxide) (0.3%) was added and cells were further incubated for 60 min at 37° C., 5% CO2 in a total volume of 100 μl of medium.
(§4) The phosphoprotein assay was executed according to vendor instructions in the Phospho-Akt (Ser473) Assay Whole Cell Lysate Kit (MSD # K15100D-3) and the Phospho-Akt (Thr308) Assay Whole Cell Lysate Kit (MSD # K151DYD-3) using the lysis, blocking and wash buffer provided.
(§5) Briefly, at the end of the cell treatment period, media were removed by aspiration and adherent cells were lysed in 50 μl ice-cold lysis buffer. MSD plates are supplied pre-coated with capture antibodies for Phospho-Akt (Ser473 and Thr308). After blocking, lysates from tissue culture plates were added and plates were washed. Then, a solution containing the detection antibody (anti-total Akt conjugated with an electrochemiluminescent compound-MSD Sulfo-tag label) was added. The signals were detected using an MSD SECTOR Imager 6000 and are proportional to the phospho-Akt titres.
(§6) Data were processed. The percentage of inhibition was plotted against the log concentration of test compounds, and the sigmoidal log concentration-effect curve of best fit was calculated by nonlinear regression analysis. From these concentration-response curves, the IC50 values were calculated. Five concentrations were used for curve fitting.

[7] = test system: Akt phosphorylated at Thr308 in PC-3 cells; assay: Cellular assay: phosphorylation of Akt (Thr308) in PC-3 cells, MSD ELISA; assay type: cell-based; settings: 60 min incubation with compound, read-out: IC50 pAkt_Thr308
Description: as §2, §3, §4, §5, §6

Sequence of PIK3Cα_h (P42336 whole entry): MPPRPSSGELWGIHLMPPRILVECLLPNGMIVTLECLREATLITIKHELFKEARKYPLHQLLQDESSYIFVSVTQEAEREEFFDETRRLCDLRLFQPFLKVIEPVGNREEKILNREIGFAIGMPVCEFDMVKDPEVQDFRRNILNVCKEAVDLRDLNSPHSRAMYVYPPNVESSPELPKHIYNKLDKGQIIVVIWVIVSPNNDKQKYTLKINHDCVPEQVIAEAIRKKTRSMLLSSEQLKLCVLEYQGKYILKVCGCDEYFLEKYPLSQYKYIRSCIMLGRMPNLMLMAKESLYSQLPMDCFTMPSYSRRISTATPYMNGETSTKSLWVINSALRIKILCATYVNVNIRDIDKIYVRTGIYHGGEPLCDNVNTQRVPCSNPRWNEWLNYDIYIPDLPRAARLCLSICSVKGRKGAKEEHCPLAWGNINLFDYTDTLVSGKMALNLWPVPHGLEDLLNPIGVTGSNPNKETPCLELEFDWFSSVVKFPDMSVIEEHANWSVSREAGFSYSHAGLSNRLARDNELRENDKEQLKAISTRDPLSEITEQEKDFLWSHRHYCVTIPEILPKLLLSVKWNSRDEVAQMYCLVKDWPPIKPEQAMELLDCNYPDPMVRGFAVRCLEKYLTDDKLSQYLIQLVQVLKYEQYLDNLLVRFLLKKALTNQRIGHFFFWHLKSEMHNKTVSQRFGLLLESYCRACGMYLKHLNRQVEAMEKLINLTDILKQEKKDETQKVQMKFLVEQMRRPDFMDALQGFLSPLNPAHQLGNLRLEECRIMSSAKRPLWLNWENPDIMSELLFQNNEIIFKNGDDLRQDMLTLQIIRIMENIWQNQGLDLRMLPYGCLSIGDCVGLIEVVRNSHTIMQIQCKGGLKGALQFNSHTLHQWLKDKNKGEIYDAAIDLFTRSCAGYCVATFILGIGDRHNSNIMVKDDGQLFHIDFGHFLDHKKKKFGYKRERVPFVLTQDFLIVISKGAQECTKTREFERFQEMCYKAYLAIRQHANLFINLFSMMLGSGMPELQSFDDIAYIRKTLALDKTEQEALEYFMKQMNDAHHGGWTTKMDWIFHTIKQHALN
Sequence of PIK3Cδ_h (O00329 whole entry): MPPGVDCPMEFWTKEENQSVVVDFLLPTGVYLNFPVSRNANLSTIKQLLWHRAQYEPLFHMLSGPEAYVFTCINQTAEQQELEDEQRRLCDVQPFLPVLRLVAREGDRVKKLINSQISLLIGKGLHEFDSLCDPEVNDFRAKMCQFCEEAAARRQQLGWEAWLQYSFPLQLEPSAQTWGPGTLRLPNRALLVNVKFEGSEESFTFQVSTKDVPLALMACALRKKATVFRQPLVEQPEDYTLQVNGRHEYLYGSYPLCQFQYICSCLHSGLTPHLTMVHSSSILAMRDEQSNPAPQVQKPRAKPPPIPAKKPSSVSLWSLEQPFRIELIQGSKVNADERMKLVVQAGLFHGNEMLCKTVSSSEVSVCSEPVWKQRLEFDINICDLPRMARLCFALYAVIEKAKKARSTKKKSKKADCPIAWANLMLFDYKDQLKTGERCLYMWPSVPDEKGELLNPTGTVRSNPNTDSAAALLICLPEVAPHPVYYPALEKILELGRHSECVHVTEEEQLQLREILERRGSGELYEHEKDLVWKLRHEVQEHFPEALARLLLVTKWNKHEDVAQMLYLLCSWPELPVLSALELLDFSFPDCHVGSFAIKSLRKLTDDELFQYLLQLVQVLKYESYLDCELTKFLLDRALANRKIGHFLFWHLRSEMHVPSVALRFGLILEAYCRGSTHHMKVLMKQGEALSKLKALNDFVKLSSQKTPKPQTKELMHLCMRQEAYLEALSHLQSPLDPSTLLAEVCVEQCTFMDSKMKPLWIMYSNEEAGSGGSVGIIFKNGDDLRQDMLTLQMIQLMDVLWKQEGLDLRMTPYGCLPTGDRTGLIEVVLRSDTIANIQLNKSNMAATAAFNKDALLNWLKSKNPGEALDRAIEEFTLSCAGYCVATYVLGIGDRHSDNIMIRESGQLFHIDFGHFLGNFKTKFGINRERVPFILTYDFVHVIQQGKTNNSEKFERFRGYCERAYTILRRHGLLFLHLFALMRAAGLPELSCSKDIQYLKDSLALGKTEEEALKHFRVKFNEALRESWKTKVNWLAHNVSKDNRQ
Sequence of PIK3Cβ_h (P42338 whole entry): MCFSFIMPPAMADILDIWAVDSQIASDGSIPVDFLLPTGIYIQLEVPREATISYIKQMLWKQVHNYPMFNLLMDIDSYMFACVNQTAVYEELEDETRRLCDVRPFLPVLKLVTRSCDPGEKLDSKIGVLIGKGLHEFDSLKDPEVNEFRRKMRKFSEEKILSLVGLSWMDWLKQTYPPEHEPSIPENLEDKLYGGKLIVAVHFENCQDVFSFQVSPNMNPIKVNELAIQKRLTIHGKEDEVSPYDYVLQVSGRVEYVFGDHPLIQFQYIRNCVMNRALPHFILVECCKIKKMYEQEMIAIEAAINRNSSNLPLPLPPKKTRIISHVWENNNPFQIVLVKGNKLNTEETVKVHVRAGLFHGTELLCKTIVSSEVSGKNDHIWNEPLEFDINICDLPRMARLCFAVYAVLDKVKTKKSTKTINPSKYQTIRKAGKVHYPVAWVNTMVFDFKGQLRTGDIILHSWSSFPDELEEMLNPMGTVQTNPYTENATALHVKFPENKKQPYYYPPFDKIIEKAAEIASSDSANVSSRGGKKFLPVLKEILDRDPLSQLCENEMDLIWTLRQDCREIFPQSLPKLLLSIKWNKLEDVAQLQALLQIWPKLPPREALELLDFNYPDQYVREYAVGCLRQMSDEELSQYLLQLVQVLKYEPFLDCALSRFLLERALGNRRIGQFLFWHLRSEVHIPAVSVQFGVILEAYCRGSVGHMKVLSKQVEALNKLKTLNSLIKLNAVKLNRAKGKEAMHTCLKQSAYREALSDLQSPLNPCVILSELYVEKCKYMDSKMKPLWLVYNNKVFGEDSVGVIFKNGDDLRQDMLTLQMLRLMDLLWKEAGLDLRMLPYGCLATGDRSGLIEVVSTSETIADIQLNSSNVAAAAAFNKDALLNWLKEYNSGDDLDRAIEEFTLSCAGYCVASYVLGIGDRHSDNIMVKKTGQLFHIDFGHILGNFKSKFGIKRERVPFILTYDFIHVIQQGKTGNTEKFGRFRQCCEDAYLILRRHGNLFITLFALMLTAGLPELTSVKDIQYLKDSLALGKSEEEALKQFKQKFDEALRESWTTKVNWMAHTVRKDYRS
Sequence of PIK3Cγ_h (P48736 whole entry): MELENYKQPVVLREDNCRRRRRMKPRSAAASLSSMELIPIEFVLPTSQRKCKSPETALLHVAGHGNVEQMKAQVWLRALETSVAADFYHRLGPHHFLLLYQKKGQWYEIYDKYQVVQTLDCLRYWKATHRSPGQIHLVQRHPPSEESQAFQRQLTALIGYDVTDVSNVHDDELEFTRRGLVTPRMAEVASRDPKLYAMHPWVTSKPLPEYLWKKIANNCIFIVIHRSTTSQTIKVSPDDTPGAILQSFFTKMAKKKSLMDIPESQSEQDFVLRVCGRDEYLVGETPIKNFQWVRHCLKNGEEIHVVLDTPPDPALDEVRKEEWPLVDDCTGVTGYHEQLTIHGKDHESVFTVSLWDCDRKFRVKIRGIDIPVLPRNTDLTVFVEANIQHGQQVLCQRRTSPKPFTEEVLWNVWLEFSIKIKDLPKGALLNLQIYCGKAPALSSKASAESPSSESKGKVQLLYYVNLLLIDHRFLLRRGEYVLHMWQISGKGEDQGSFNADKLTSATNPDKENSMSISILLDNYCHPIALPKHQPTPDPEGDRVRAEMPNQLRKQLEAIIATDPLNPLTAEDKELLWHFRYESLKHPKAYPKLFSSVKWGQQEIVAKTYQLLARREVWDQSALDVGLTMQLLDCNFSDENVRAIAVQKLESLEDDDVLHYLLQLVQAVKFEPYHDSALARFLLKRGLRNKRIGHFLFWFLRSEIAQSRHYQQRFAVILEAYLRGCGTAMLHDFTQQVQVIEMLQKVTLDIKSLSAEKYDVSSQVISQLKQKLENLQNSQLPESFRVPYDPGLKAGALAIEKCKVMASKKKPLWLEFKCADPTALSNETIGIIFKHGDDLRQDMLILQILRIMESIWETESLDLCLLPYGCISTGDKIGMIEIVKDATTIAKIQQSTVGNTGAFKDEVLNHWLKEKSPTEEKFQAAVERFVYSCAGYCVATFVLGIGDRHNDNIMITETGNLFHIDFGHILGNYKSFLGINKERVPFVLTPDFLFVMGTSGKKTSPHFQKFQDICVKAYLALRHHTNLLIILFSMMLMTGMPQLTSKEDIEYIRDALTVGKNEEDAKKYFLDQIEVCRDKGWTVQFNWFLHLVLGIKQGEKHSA

pKd [1]	pKd [2]	pKd [3]	pKd [4]	pKd [5]	pIC50 ([6]; Homo sapiens, PC-3, 1 h)	pIC50 ([7]; Homo sapiens, PC-3, 1 h)	pIC50 [6]	pIC50 [7]	Structure (SMILES)
5.77	8.66	7.07	5.32	< 5.00	7.48	~7.60	–	–	Cc1c(Cc2c(CO)nc3c(-c4ncc[nH]4)cc(N4CCOCC4)nn23)cccc1C(F)(F)F [Compound 20]
5.80	8.05	6.62	6.21	6.75	6.83	7.30	–	–	Cc1c(Cc2c(CO)nc3c(-c4ccn[nH]4)cc(N4CCOCC4)nn23)cccc1C(F)(F)F [Compound 21]
5.80	8.92	7.32	< 4.82	4.97	< 6.29	< 6.29	–	–	Cc1c(Cc2c(CO)nc3c(C(=O)O)cc(N4CCOCC4)nn23)cccc1C(F)(F)F [Compound 22]
4.68	8.52	6.56	4.64	4.69	7.19	7.31	–	–	Cc1c(Cc2c(CCO)nc3c(N)cc(N4CCOCC4)nn23)cccc1C(F)(F)F [Compound 23]
5.95	8.52	6.83	5.47	5.60	7.37	7.43	–	–	Cc1c(Cc2c(CCO)nc3c(-c4c[nH]cn4)cc(N4CCOCC4)nn23)cccc1C(F)(F)F [Compound 24]
< 4.52	6.70	< 4.52	< 4.52	5.93	–	–	6.35	< 6.29	Cc1c(Cc2c(CO)nc3c(-c4c[nH]cn4)cc(N4CCOC(C)C4)nn23)cccc1C(F)(F)F (centres unmarked) [Compound 25]
< 4.52	6.48	4.86	4.93	5.07	< 6.29	~6.51	–	–	Cc1c(Cc2c(CO)nc3c(N)cc(N4CCOC(C)C4)nn23)cccc1C(F)(F)F (centres unmarked) [Compound 26]
6.21	8.62	7.24	6.32	6.35	–	–	7.38	7.85	Cc1c(Cc2c(CO)nc3c(-c4c[nH]cn4)cc(N4CCOC(C)C4)nn23)cccc1C(F)(F)F (centres unmarked) [Compound 27]
5.68	8.60	7.08	5.26	4.67	~6.39	6.42	–	–	Cc1nc2c(C(=O)O)cc(N3CCOC(C)C3)nn2c1Cc1cccc(C(F)(F)F)c1C (centres unmarked) [Compound 28]
5.47	8.15	6.70	4.91	< 4.52	< 6.29	~6.29	–	–	Cc1nc2c(C(=O)O)cc(C3=CCOCC3)nn2c1Cc1cccc(C(F)(F)F)c1C [Compound 29]
5.93	8.59	6.89	5.34	5.66	7.23	~7.38	–	–	Cc1c(Cc2c(C(C)O)nc3c(-c4c[nH]cn4)cc(N4CCOCC4)nn23)cccc1C(F)(F)F (centres unmarked) [Compound 30]
5.64	8.60	7.15	4.77	< 5.00	7.34	7.66	–	–	Cc1c(Cc2c(C(C)O)nc3c(-c4ncc[nH]4)cc(N4CCOCC4)nn23)cccc1C(F)(F)F (centres unmarked) [Compound 31]
4.83	8.74	6.45	4.92	4.65	7.06	7.46	–	–	Cc1c(Cc2c(C(C)O)nc3c(N)cc(N4CCOCC4)nn23)cccc1C(F)(F)F (centres unmarked) [Compound 32]
5.29	8.22	6.77	4.94	4.69	7.92	7.77	–	–	Cc1nc2c(N)cc(N3CCOCC3)nn2c1Nc1cccc(C(F)(F)F)c1C [Compound 33]
